Laboratory results reported in patent US20180087079A1, “METHODS OF USING CELL-CYCLE INHIBITORS TO MODULATE ONE OR MORE PROPERTIES OF A CELL CULTURE” (AMGEN INC., priority 2013, published 2018).

Tested on: transfected CHO cells expressing recombinant human monoclonal antibody (cell line 1)
Assay: 24-deep well culture, cell line 1: VCD, viability, titer, qP
Format: cell-based, Chinese hamster
Details: Cell Line 1
Method: Transfected CHO cells expressing a recombinant human monoclonal antibody (mAb) are cultured in 24-deep well plates with seeding density at 1×10^7/mL for five days. At certain time periods, samples of the cultures are taken and evaluated for viable cell density (VCD; expressed in 10^6 cells/mL); percent viability (as determined by trypan blue exclusion); titer of recombinant protein (expressed in grams of protein per liter of culture, or g/L, as determined by Protein A affinity HPLC); qP, or specific productivity (expressed in picograms of recombinant protein per cell per day, or pg/c/d), the presence or absence of high molecular weight substances (usually an indicator of protein aggregation; expressed as % of the total protein); and the relative percentage of Mannose 5, a major intermediate glyco-form that attaches to N297 of the mAb. N-linked glycosylation has an impact on the tertiary structure of the antibody and may affect Fc mediated antibody effector functions. The majority of the human Fc glycans are complex biantennary structures with galactose as the prevalent terminal sugar. Immature glyco-forms, such as high-mannose glycol-forms (Man5-9), are of concern due to potential higher plasma clearance rate (as compared to the clearance rate of complex glycan linked mAbs).
Compounds are further evaluated essentially as described in Example 2 herein. Briefly, transfected CHO cells expressing recombinant human monoclonal antibody (mAb; two different cell lines expressing two different mAb, referred to as cell line 1 and cell line 2) are cultured in 24-deep well plates in the presence or absence of the compounds. At specified time points, samples of the cultures are taken and evaluated for viable cell density (VCD; expressed in 10^6 cells/mL); percent viability (as determined by any method known in the art); titer of recombinant protein (expressed in grams of protein per liter of culture, or g/L, as determined by Protein A affinity HPLC); qP, or specific productivity (expressed in picograms of recombinant protein per cell per day, or pg/c/d). Additional parameters measure include the presence or absence of high molecular weight substances (usually an indicator of protein aggregation; expressed as % of the total protein); and the relative percentage of Mannose 5. For comparison purposes, Compounds A and B, which had been previously tested, were tested again.

CC1(C)C=CC2(CC1)c1cnccc1-c1cnc(Nc3ccc(N4CCNCC4)nn3)nc12 (centres unmarked) [Compound K, 4,4-dimethyl-N-(6-(piperazin-1-yl)pyridazin-3-yl)spiro[cyclohex[2]ene-1,9′-pyrido[4′,3′:3,4]cyclopenta[1,2-d]pyrimidin]-2′-amine]
Titer (1.25 microM, D 1): 0.48 g/L
VCD (1.25 microM, D 1): 11.87 e6/mL
Viability (1.25 microM, D 1): 95.72%
qP (1.25 microM, D 1): 40.15 pg/c/d
Titer (1.25 microM, D 2): 0.72 g/L
VCD (1.25 microM, D 2): 13.04 e6/mL
Viability (1.25 microM, D 2): 92.13%
qP (1.25 microM, D 2): 54.94 pg/c/d
Titer (1.25 microM, D 3): 1.01 g/L
VCD (1.25 microM, D 3): 16.39 e6/mL
Viability (1.25 microM, D 3): 90.36%
qP (1.25 microM, D 3): 61.61 pg/c/d
Titer (1.25 microM, D 4): 1.07 g/L
VCD (1.25 microM, D 4): 22.55 e6/mL
Viability (1.25 microM, D 4): 91.21%
qP (1.25 microM, D 4): 47.60 pg/c/d
Titer (2.5 microM, D 1): 0.48 g/L
VCD (2.5 microM, D 1): 11.77 e6/mL
Viability (2.5 microM, D 1): 96.38%
qP (2.5 microM, D 1): 40.78 pg/c/d
Titer (2.5 microM, D 2): 0.72 g/L
VCD (2.5 microM, D 2): 12.07 e6/mL
Viability (2.5 microM, D 2): 90.97%
qP (2.5 microM, D 2): 59.38 pg/c/d
Titer (2.5 microM, D 3): 1.05 g/L
VCD (2.5 microM, D 3): 15.31 e6/mL
Viability (2.5 microM, D 3): 89.25%
qP (2.5 microM, D 3): 68.37 pg/c/d
Titer (2.5 microM, D 4): 1.22 g/L
VCD (2.5 microM, D 4): 21.06 e6/mL
Viability (2.5 microM, D 4): 89.80%
qP (2.5 microM, D 4): 58.10 pg/c/d
